We go through one compound from patent publication EP0066456B1, “N-substituted azaheterocyclic carboxylic acids and their esters” (SMITHKLINE BECKMAN CORPORATION, priority 1981, dated 1982).

The assay relates to contralateral rotation in rats induced by unilateral injection of GABA into the pars reticulata of the substantia nigra. The assay can be described thus: potentiation of GABA-induced contralateral rotation in rats (unilateral GABA injection into pars reticulata of substantia nigra). It counts as in vivo. The conditions noted are these: systemic administration, doses from 2.5 to 40.0 mg/kg, I.P. As to the method: Compounds active in the in vitro test described above are tested by systemic administration for their ability to penetrate the central nervous system and potentiate the rotation induced by GABA.

Regarding `Cl.O=C(O)C1CCCN(CCC=C(c2ccccc2)c2ccccc2)C1` (stereo not shown) [1 - (4,4 - diphenyl - 3 - butenyl) - 3 - piperidinecarboxylic acid hydrochloride], the “potentiation of contralateral rotation induced by GABA” value was “significantly active”.
